Measurements: US12516056B2, “Compounds for inhibition of janus kinase 1” (MANKIND PHARMA LTD., priority 2019, dated 2026)
Like-named read-outs stand apart in the source and are kept apart here.

Assays:
[1] = system: STAT5 phosphorylation by GMCSF in TF-1 cells; assay: JAK cellular assay: STAT5 phosphorylation by GMCSF in TF-1 cells (HTRF); assay type: cell-based; details: Homo sapiens
How it was run: (§1)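 TF-1 cells starved overnight in low-serum OptiMEM, then 120,000/well in RPMI, preincubated with compound 30 min at 37 °C (0.2% DMSO final). Stimulation 20 min with IL-6 30 ng/ml (pSTAT3) or GMCSF 5 ng/ml (pSTAT5); lysate phospho-STAT by HTRF, unstimulated background subtracted.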

Recombinant JAK3 = biological target: T1, Recombinant JAK3 (Homo sapiens, UniProt P52333); assay: JAK biochemical assay (LANCE Ultra TR-FRET), JAK3; details: recombinant JAK3, TR-FRET; read-out: Biochemical Assay (μM) JAK3
T1 construct: purchased Carna Biosciences
T1 sequence (P52333 1-1124): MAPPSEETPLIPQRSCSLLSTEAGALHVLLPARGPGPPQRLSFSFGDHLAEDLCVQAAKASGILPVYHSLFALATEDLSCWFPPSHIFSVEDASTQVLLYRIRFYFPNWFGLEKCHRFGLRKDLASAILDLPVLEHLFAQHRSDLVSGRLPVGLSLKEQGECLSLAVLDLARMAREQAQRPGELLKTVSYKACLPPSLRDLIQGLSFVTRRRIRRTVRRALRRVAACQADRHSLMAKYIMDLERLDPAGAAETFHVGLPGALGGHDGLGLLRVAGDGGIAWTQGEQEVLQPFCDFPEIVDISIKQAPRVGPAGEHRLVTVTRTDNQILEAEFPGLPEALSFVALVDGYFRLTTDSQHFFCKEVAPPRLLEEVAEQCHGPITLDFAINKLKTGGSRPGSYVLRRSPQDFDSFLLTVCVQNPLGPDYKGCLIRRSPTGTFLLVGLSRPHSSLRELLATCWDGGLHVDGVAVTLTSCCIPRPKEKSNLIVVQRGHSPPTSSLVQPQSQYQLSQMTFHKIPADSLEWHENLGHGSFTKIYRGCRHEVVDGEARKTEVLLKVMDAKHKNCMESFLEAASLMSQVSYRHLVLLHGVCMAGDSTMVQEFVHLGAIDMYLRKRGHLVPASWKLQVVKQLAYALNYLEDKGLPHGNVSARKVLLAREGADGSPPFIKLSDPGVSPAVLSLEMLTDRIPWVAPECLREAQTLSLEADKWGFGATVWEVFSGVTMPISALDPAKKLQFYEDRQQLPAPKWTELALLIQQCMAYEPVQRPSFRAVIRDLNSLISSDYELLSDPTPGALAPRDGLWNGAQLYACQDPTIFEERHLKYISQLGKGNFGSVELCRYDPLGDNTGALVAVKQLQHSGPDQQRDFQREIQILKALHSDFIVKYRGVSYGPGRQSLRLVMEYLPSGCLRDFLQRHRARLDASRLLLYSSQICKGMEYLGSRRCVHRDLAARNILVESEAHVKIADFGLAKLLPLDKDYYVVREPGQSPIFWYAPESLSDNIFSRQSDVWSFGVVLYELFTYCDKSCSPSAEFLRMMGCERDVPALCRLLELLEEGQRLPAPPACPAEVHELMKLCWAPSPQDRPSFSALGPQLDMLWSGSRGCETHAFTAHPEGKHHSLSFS
How it was run: (§2)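 % inhibition relative to vehicle was derived from TR-FRET signal proportional to ULight-substrate phosphorylation. Reactions used recombinant kinase in HEPES pH 7.5 buffer containing EGTA, MgCl2, DTT and Tween-20.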

Recombinant TYK2 = biological target: T2, Recombinant TYK2 (Homo sapiens, UniProt P29597); assay: JAK biochemical assay (LANCE Ultra TR-FRET), TYK2; details: recombinant TYK2, TR-FRET; read-out: Biochemical Assay (μM) TYK2
T2 construct: purchased Carna Biosciences
How it was run: as §2

Recombinant JAK2 = biological target: T3, Recombinant JAK2 (Homo sapiens, UniProt O60674); assay: JAK biochemical assay (LANCE Ultra TR-FRET), JAK2; details: recombinant JAK2, TR-FRET; read-out: Biochemical Assay (μM) JAK2
T3 construct: purchased Carna Biosciences
How it was run: as §2

[2] = system: STAT5 phosphorylation by IL-2 in HT-2 cells; assay: STAT5 phosphorylation by IL-2 in HT-2 cells (HTRF); assay type: cell-based
How it was run: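 Starved HT-2 cells (120,000/well) were preincubated 30 min at 37 °C with compound (0.2% DMSO), then stimulated 20 min with human IL-2 (50 U/ml). pSTAT5 in lysates measured by HTRF, with unstimulated-cell background subtracted.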

[3] = system: STAT3 phosphorylation by IL-6 in TF-1 cells; assay: JAK cellular assay: STAT3 phosphorylation by IL-6 in TF-1 cells (HTRF); assay type: cell-based; details: Homo sapiens
How it was run: as §1

Recombinant JAK1 = biological target: T4, Recombinant JAK1 (Homo sapiens, UniProt P23458); assay: JAK biochemical assay (LANCE Ultra TR-FRET), JAK1; details: recombinant JAK1, TR-FRET; read-out: Biochemical Assay (μM) JAK1
T4 construct: purchased Carna Biosciences
How it was run: as §2

[4] = system: IFN-γ production in NK 92 cells by IL-12; assay: IFN-γ production in NK 92 cells by IL-12 (ELISA); details: NK92, IFN-γ secretion, read-out: Cell Based Assay (μM) NK-92/IL-2/IFN-γ
[5] = system: Imiquimod induced dermatitis in mice; assay: Mouse model of Imiquimod induced psoriasis; assay type: in vivo, Female BALB/c mice; details: 3% topical, QD; IMQ induced psoriasis, mice
Protocol: Imiquimod (IMQ) induced dermatitis closely resembles human psoriasis lesions not only with regard to phenotypic and histological characteristics but also in the development of the lesions. IMQ is a ligand for toll-like receptor 7 (TLR7) and TLR8, and is a potent immune activator. […] Migration of activated dermal dendritic cells to lymph nodes in skin triggers a sequence of events leading to late phase of psoriasis. Compounds described herein are tested for JAK inhibition driven efficacy in Imiquimod induced dermatitis in mice.
Female BALB/c mice were topically dosed with 3% cream formulation containing test compounds. After four hours of test compound administration, 5% Imiquimod was applied on back skin and right ear for five days. On day 6, post dosing with test compounds, the severity of psoriasis was monitored and graded following Psoriasis Area and Severity Index (PASI). Efficacies of the compounds were evaluated based on PASI score. Redness, thickness and scaling of back skin and ear were assessed among the groups for scoring.

[6] = system: IFN-γ production in NK 92 cells by IL-12; assay: IFN-γ production in NK 92 cells by IL-12 (ELISA); details: NK92, IFN-γ detection from cell supernatants, read-out: Cell based IC50 (μM) NK-92/IL-12*
Protocol: NK 92 cells were cultured in medium without IL-2 for overnight. Next day, 5000 cells per well NK 92 cells were seeded in a 96 well plate. Compounds were added to cells and incubated for 1 hour. Later IL-12, 10 U/ml was added to cells and incubated for overnight. Supernatant was collected from the wells and IFN-7 secretion was measured by using human IFN-7 ELISA kit. Absorbance was measured at 450 nm in BMG FLUOstar. Background signal obtained from cells which were not activated with cytokines, was subtracted from vehicle controls and compound treated wells.

[7] = TF-1 cells, GMCSF 5 ng/ml, pSTAT5 HTRF, read-out: Cell Based Assay (μM) TF-1/GMCSF/pSTAT5
[8] = HT2, HT-2 cells, IL-2 50 U/ml, pSTAT5 HTRF, read-out: Cell Based Assay (μM) HT-2/IL-2/pSTAT5
[9] = TF-1, TF-1 cells, IL-6 30 ng/ml, pSTAT3 HTRF, read-out: Cell Based Assay (μM) TF-1/IL-6/pSTAT3

T2 sequence (P29597 whole entry): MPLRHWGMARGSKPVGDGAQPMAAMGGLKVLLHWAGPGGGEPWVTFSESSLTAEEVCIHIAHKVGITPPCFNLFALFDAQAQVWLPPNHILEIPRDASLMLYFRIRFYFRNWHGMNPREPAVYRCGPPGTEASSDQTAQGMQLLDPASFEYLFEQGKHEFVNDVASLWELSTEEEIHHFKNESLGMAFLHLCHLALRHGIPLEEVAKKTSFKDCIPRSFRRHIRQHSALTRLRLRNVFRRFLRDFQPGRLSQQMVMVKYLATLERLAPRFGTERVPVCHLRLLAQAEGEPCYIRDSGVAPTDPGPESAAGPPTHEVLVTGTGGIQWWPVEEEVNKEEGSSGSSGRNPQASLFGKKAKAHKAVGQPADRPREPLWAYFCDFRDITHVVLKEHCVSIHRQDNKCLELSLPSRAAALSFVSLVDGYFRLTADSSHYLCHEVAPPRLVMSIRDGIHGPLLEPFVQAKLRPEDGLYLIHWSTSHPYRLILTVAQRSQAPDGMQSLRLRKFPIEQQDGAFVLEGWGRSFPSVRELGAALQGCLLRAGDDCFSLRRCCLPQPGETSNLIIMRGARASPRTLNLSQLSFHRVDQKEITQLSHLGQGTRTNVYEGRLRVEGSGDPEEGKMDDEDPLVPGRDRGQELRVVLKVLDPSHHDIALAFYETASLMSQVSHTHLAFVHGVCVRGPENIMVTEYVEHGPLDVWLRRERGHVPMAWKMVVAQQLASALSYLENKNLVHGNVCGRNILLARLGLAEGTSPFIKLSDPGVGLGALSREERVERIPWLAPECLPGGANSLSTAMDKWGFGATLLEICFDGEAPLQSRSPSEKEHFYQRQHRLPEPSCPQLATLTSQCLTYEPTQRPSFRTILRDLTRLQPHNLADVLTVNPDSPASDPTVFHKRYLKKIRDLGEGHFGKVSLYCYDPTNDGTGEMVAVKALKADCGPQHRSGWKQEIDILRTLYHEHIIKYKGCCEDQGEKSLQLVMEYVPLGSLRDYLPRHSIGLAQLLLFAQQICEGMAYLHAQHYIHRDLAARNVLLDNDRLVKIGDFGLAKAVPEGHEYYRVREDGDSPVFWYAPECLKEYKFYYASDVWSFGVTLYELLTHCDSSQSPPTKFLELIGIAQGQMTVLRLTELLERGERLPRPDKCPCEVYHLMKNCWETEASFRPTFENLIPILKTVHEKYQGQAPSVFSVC
T3 sequence (O60674 whole entry): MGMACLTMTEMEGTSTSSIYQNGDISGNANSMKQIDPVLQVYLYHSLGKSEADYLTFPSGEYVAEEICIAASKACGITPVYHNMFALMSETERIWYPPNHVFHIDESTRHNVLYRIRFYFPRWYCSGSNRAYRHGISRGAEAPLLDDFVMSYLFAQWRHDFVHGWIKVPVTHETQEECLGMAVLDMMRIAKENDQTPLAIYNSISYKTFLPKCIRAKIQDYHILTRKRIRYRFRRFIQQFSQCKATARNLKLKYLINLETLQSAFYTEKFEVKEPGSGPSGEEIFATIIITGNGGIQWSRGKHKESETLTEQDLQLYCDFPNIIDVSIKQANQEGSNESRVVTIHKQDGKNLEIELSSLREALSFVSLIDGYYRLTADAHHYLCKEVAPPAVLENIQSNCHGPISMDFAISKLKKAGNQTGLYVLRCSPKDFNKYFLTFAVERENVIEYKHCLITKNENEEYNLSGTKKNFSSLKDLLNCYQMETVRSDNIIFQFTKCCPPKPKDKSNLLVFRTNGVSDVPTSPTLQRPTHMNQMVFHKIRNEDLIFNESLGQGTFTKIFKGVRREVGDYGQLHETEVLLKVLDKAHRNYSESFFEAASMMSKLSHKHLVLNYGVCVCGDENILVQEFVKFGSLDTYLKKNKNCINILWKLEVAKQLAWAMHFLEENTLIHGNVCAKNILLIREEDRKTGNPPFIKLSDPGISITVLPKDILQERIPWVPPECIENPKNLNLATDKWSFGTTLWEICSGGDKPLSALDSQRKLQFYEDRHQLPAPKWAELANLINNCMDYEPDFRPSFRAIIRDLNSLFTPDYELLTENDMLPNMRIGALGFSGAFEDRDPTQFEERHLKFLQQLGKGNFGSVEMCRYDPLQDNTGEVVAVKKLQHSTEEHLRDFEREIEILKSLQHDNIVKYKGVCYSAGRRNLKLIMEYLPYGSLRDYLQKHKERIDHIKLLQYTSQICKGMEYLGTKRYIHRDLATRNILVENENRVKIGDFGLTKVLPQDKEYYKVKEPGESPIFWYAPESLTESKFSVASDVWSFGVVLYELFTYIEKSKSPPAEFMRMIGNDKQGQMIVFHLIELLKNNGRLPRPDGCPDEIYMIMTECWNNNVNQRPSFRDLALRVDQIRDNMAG
T4 sequence (P23458 whole entry): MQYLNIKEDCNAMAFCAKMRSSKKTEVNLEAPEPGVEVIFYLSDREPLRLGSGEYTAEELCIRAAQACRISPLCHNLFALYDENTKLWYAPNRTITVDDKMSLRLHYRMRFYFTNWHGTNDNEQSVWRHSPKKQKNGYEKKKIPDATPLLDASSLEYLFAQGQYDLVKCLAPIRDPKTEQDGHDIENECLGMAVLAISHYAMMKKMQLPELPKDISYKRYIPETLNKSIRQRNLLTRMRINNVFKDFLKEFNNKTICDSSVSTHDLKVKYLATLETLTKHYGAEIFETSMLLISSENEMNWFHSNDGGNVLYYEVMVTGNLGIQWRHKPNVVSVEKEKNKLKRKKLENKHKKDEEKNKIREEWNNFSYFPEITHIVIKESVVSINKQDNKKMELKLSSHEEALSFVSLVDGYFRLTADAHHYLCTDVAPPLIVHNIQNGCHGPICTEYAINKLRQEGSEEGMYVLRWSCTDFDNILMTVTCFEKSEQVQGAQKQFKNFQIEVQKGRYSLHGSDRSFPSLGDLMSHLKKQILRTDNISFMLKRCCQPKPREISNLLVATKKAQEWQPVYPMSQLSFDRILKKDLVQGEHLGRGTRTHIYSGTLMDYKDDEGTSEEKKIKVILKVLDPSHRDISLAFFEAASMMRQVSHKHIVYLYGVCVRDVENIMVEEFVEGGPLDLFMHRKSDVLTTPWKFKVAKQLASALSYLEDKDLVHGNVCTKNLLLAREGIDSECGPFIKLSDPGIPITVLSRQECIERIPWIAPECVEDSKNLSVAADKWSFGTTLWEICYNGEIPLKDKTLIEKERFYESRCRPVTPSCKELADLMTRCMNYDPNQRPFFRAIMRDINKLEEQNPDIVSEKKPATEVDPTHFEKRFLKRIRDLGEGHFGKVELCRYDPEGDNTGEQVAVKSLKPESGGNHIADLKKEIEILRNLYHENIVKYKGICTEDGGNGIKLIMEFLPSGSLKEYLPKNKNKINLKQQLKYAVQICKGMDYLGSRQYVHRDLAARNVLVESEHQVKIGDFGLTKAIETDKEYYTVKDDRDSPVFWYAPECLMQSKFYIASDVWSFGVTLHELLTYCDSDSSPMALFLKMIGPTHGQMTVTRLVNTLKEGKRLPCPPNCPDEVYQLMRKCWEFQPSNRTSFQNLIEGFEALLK

Row | Structure (SMILES) | IC50 [1, 7] [µM] | IC50 (Recombinant JAK3) [µM] | IC50 (Recombinant TYK2) [µM] | IC50 (Recombinant JAK2) [µM] | IC50 [2, 8] [µM] | IC50 [3, 9] [µM] | IC50 (Recombinant JAK1) [µM] | IC50 [4] [µM] | IC50 ([1]; TF-1, read-out: Cell based IC50 (μM) TF-1/GM-CSF) [µM] | IC50 ([2]; HT2, read-out: Cell based IC50 (μM) HT-2/IL-2) [µM] | IC50 [6] [µM] | IC50 ([3]; TF-1, read-out: Cell based IC50 (μM) TF-1/IL-6) [µM] | back skin thickness [5] | cumulative psoriasis score compared to vehicle [5] | ear thickness [5]
1 | N#CCc1ccc(-n2cc(-c3ccnc4[nH]cnc34)cn2)nc1 [Example 1078, 2-(6-(4-(3H-imidazo[4,5-b]pyridin-7-yl)-1H-pyrazol-1-yl)pyridin-3-yl)acetonitrile] | > 10 | 0.07 | > 1 | 0.108 | > 1 | 1.05 | 0.025 | > 10 | – | – | – | – | – | – | –
2 | COC(c1ccc(-n2cc(-c3ccnc4[nH]cnc34)cn2)nc1)C(F)(F)F (stereo not shown) [Example 1119, 7-(1-(5-(2,2,2-trifluoro-1-methoxyethyl)pyridin-2-yl)-1H-pyrazol-4-yl)-3H-imidazo[4,5-b]pyridine] | > 10 | 0.07 | > 1 | 0.2 | > 1 | 1.3 | 0.03 | 10 | – | – | – | – | – | – | –
3 | CC(O)(c1ccc(-n2cc(-c3ccnc4[nH]cnc34)cn2)nc1)C(F)(F)F (stereo not shown) [Example 1125, 2-(6-(4-(3H-imidazo[4,5-b]pyridin-7-yl)-1H-pyrazol-1-yl)pyridin-3-yl)-1,1,1-trifluoropropan-2-ol] | > 10 | 0.009 | 0.15 | 0.023 | 0.26 | 0.27 | 0.004 | > 10 | – | – | – | – | – | – | –
4 | OC(c1ccc(-n2cc(-c3ccnc4[nH]cnc34)cn2)nc1)C(F)(F)F (stereo not shown) [Example 1169, 1-(6-(4-(3H-imidazo[4,5-b]pyridin-7-yl)-1H-pyrazol-1-yl)pyridin-3-yl)-2,2,2-trifluoroethanol] | > 10 | 0.014 | > 1 | 0.073 | < 1 | 0.45 | 0.013 | > 10 | – | – | – | – | – | – | –
5 | CCN1CCC([C@@](O)(c2ccc(-n3cc(-c4ccnc5[nH]cnc45)cn3)nc2)C(F)(F)F)C1 (stereo partly drawn) [Example 1232, (R)-1-(6-(4-(3H-imidazo[4,5-b]pyridin-7-yl)-1H-pyrazol-1-yl)pyridin-3-yl)-1-(1-ethylpyrrolidin-3-yl)-2,2,2-trifluoroethanol] | > 1 | 0.015 | 0.2 | 0.023 | 0.34 | 0.09 | 0.003 | > 3 | – | – | – | – | – | – | –
6 | CCN1CCC([C@](O)(c2ccc(-n3cc(-c4ccnc5[nH]cnc45)cn3)nc2)C(F)(F)F)C1 (stereo partly drawn) [Example 1233, (S)-1-(6-(4-(3H-imidazo[4,5-b]pyridin-7-yl)-1H-pyrazol-1-yl)pyridin-3-yl)-1-(1-ethylpyrrolidin-3-yl)-2,2,2-trifluoroethanol] | > 1 | < 0.1 | < 0.5 | < 0.1 | > 0.5 | 0.21 | < 0.1 | > 3 | – | – | – | – | – | – | –
7 | O=C(Nc1nc2cccc(-c3ccc(CN4CCS(=O)(=O)CC4)cc3)n2n1)C1CC1 [Filgotinib, filgotinib, reference compound] | – | – | – | – | – | – | – | – | 3.4 | 0.95 | > 10 | 0.6 | significant decrease | statistically significant decrease | significant decrease

Now from value to molecule, other results behind:

Row | IC50 [1, 7] [µM] | IC50 (Recombinant JAK3) [µM] | IC50 (Recombinant TYK2) [µM] | IC50 (Recombinant JAK2) [µM] | IC50 [2, 8] [µM] | IC50 [3, 9] [µM] | IC50 (Recombinant JAK1) [µM] | IC50 [4] [µM] | IC50 ([1]; TF-1, read-out: Cell based IC50 (μM) TF-1/GM-CSF) [µM] | IC50 ([2]; HT2, read-out: Cell based IC50 (μM) HT-2/IL-2) [µM] | IC50 [6] [µM] | IC50 ([3]; TF-1, read-out: Cell based IC50 (μM) TF-1/IL-6) [µM] | Structure (SMILES) | back skin thickness [5] | cumulative psoriasis score compared to vehicle [5] | ear thickness [5]
8 | > 1 | 0.041 | > 1 | – | 0.9 | 0.35 | 0.015 | > 3 | – | – | – | – | CS(=O)(=O)CC[C@H](c1ccc(-n2cc(-c3ccnc4[nH]cnc34)cn2)nc1)C(F)(F)F [Example 1182, 7-(1-(5-((R)-1,1,1-trifluoro-4-(methylsulfonyl)butan-2-yl)pyridin-2-yl)-1H-pyrazol-4-yl)-3H-imidazo[4,5-b]pyridine] | – | – | –
9 | > 1 | 0.018 | > 1 | 0.064 | 0.47 | 0.16 | 0.0025 | > 3 | – | – | – | – | CC(C)N1CCC([C@@](O)(c2ccc(-n3cc(-c4ccnc5[nH]cnc45)cn3)nc2)C(F)(F)F)C1 (stereo partly drawn) [Example 1225, (R)-1-(6-(4-(3H-imidazo[4,5-b]pyridin-7-yl)-1H-pyrazol-1-yl)pyridin-3-yl)-2,2,2-trifluoro-1-(1-isopropylpyrrolidin-3-yl)ethanol] | – | – | –
10 | 1.5 | – | – | 0.005 | 0.15 | 0.05 | 0.0003 | > 3 | – | – | – | – | CN1CC(C(O)(c2ccc(-n3cc(-c4ccnc5[nH]cnc45)cn3)nc2)C(F)(F)F)C1 (stereo not shown) [Example 1231, 1-(6-(4-(3H-imidazo[4,5-b]pyridin-7-yl)-1H-pyrazol-1-yl)pyridin-3-yl)-2,2,2-trifluoro-1-(1-methylazetidin-3-yl)ethanol] | – | – | –
